For orientation: half-life means the time in which the quantity being followed falls by half.

Values joined by “and” are separate entries in the source; they are usually repeats but may differ in a detail not shown here. Identical values can stand only once.

The conditions of series [1]: in vivo; cited from earlier work.
The nature of series [2]: Phase 2a trial in adolescent PWS patients: body weight and BMI, random coefficients analysis. The format is in vivo, human. As for the experimental part:
Arm 1) tesofensine 0.125 mg+metoprolol 25 mg administered once a day, in the morning with a meal-first, an initial titration dose of tesofensine 0.0625 mg+metoprolol 25 mg will be given for the first 4 weeks, in the morning with a meal. Following a favorable review of all safety data for each subject by the investigator, tesofensine 0.125 mg+metoprolol 25 mg will be given for the final 9 weeks (the above proposed dosing plan can be adjusted by the DSMB, if needed)
(§1) This study included a double blind (DB) part (3 months) and two Open Label Extensions (OLE), each 3 months. Adolescents (12 to 17 years of age) received: tesofensine 0.125 mg daily (0.25 mg every second day)+metoprolol succinate 25 mg. Example 4 relates to Example 2.
(§2) The initial double blind (DB) phase of this study utilized a dose of tesofensine of 0.125 mg daily. In the first 3-month Open Label Extension (OLE1), a dose of 0.125 mg tesofensine was maintained. In the second OLE (OLE2), the tesofensine dose, if judged safe by the principle investigator (PI), was increased to 0.25 mg daily.
In the random coefficients analysis, each subject was considered as having their own profile of data, i.e. their own set of weight change/hyperphagia values and corresponding pk values. The analysis was essentially conducted by fitting a regression line to each subject individually:
where j denotes subjects, j=1 to m, and i denotes the measurement with subject j, i=1 to nj. The slope βj and intercept αj estimate for each subject j=1 to m, along with their standard errors, were then obtained. In a final step, the βj and αj values were averaged across the m subjects to give the overall mean regression slope and mean intercept, βj and αj, which gives the correlation line, as well as the associated confidence interval.

The conditions of series [3]: cited from earlier work.
A short description of series [4]: Phase 2a trial in adult PWS patients: tesofensine plasma concentration. It is filed as in vivo, human. The conditions noted are these: for Mean trough plasma concentration of tesofensine: TM002 study, 0.50 mg tesofensine + 50 mg metoprolol daily. Here is the method: This exploratory Phase 2a trial comprised in of a total of nine adult patients with Prader-Willi syndrome (PWS) of which six patients received co-administration of tesofensine (0.50 mg)/metoprolol (50 mg) (A, active treatment—Tesomet) and three patients received placebo (P). The initial plan was to complete 10-20 adult subjects with PWS. However, ultimately nine patients were randomized as more subjects were not available at the two participating sites.
The main objective of this study was to examine the effect of co-administration of tesofensine/metoprolol on body weight in subjects with PWS. Further objectives were: • To establish a pharmacokinetic profile of tesofensine and metoprolol in subjects with PWS. • To examine the effect of co-administration of tesofensine/metoprolol on glycaemic control and lipid profile in subjects with PWS • To examine the effect of co-administration of tesofensine/metoprolol on HR and BP in subjects with PWS • To examine the effects of co-administration of tesofensine/metoprolol on body composition in subjects with PWS • To evaluate overall safety and tolerability of co-administration of the tesofensine/metoprolol in subjects with PWS
Arm 1) tesofensine 0.50 mg+metoprolol 50 mg administered once a day, in the morning with a meal
The study included two arms: Tesomet 0.5/50 (combination of 0.50 mg tesofensine and 50 mg of metoprolol ER) or placebo tablets matching tesofensine+metoprolol succinate, each administered once daily in the morning with a meal.
The primary endpoint was change in body weight following 91 days of treatment with either tesofensine+metoprolol or placebo. Patients were weighed throughout the study period to track changes in body weight. Secondary endpoints included change in hyperphagia-related behavior, pharmacokinetic profile, effects of co-administration of tesofensine/metoprolol on HR, BP, glycemic control, lipid profile and body composition, and safety and tolerability.

The conditions of series [5]: cited from earlier work. The source holds these as a separate data set.
The test system of series [6] is rat model of diet-induced obesity (DIO). The conditions noted are these: DIO rats; cited from earlier work.
The nature of series [7]: Phase 2a trial in adolescent PWS patients: tesofensine plasma levels. It is filed as in vivo, human. As to conditions: for concentration at 3 months: human, plasma, oral. As for the experimental part:
as §1, §2

The nature of series [8]: Phase 2a trial in adolescent PWS patients: hyperphagia score. The format is in vivo, human. As for the experimental part:
as §1, §2

Where [9] appears, read: 0.125 mg tesofensine daily (DB, OLE1).

Turning to `COCCc1ccc(OCC(O)CNC(C)C)cc1` (stereo not drawn) [Metoprolol, 1-(Isopropylamino)-3-[4-(2-methoxyethyl)-phenoxy]-propan-2-ol, reference compound], the half-life in series [1] is 3 to 4 h.

Consider `CCOC[C@@H]1[C@@H](c2ccc(Cl)c(Cl)c2)C[C@@H]2CC[C@H]1N2C` [Tesofensine, (1R,2R,3S,5S)-3-(3,4-dichlorophenyl)-2-(ethoxymethyl)-8-methyl-8-azabicyclo[3.2.1]octane], for which the “weight change compared to placebo” value in series [2] (adolescent PWS, DB phase, 0.125 mg tesofensine dose) was “No difference compared to placebo”. The decrease in weight entry in series [2] (adolescent PWS, at 10 ng/mL tesofensine plasma level, from the correlation analysis) is given as “around 2%”. Also, the “tesofensine plasma level that counteracts the baseline weight gain of around 3%” value in series [2] (adolescent PWS, random coefficients analysis) is given as “around 6 ng/mL”. Further, the “Slope (SE), monthly BMI change versus tesofensine plasma level” value in series [2] (random coefficients analysis, N=8, p=0.0031) is on record as −0.478 (0.1081). Besides, the “Slope (SE), monthly body weight change versus tesofensine plasma level” value in series [2] (random coefficients analysis, N=8, p=0.0046) is listed as −0.460 (0.1120). Moreover, the “average tesofensine trough plasma concentration” value in series [3] (TIPO-1, dose of 0.5 mg Tesofensine) is on record as 10 ng/mL. Moreover, the “efficacious target plasma levels” value in series [3] (previous studies in obese individuals at the same dosages) was ~10 ng/mL and around 10 ng/mL. Moreover, the “Mean trough plasma concentration of tesofensine” value in series [4] (V5 (day 28), n = 6) turned out to be 18 ± 9 ng/mL; in series [4] (V9 (day 56), n = 5) it was 21 ± 8 ng/mL; in series [4] (V14 (day 91), n = 2) it was 23 ± 1 ng/mL. In addition, the “plasma levels of tesofensine” value in series [4] (adult PWS, 0.50 mg tesofensine and 50 mg metoprolol) lay within 20 to 40 ng/mL; in series [7] (setting [9]) it was 3 to 5 ng/mL. Also, the “plasma concentration in individual patients” value in series [4] (adult PWS, 0.5 mg tesofensine, two patients) was 34.1 ng/mL and 34.2 ng/mL. Further, the “mean trough plasma concentration” value in series [4] (adult PWS, dosing of 0.5 mg tesofensine, whole study) is on record as around 20 ng/mL. For the same molecule, the “waist circumference and sagittal diameter” value in series [5] (Astrup et al., 2008) was “significantly decreases”. In addition, the weight loss entry in series [5] (obese patients, long-term treatment, corrected for placebo and diet effects) was “about 10%”. For the same molecule, in series [1], the serum half-life entry is given as “nine”. Moreover, the body weight entry in series [6] was “robust and sustained weight loss”. The results for the concentration at 3 months in series [7] (setting [9]) and in series [7] (0.25 mg tesofensine daily (OLE2)) were 3 to 5 ng/mL and 7 to 9 ng/mL, respectively. Besides, the “hyperphagia scores compared to placebo” value in series [8] (DB part and OLE1, 0.125 mg tesofensine daily) is recorded as “did not differ from placebo”. The “hyperphagia compared to placebo” value in series [8] (DB phase, 0.125 mg tesofensine dose) was “No difference compared to placebo”. In addition, the hyperphagia scores result in series [8] (OLE2, 0.25 mg tesofensine) is “dropped to single digit numerical values”.

The record behind these values is patent publication US20220160658A1, “TESOFENSINE FOR REDUCTION OF BODY WEIGHT IN PRADER-WILLI PATIENTS” (Saniona A/S, priority 2019, published 2022).
